From patent US8785445B2 (Array BioPharma Inc., priority 2008, dated 2014)
Where two headings read alike, the source gives them in different places.

Target: T1, human DP2 (Homo sapiens, UniProt Q9Y5Y4)
T1 construct: expressed in transfected cells; membranes prepared
T1 sequence (Q9Y5Y4 1-395): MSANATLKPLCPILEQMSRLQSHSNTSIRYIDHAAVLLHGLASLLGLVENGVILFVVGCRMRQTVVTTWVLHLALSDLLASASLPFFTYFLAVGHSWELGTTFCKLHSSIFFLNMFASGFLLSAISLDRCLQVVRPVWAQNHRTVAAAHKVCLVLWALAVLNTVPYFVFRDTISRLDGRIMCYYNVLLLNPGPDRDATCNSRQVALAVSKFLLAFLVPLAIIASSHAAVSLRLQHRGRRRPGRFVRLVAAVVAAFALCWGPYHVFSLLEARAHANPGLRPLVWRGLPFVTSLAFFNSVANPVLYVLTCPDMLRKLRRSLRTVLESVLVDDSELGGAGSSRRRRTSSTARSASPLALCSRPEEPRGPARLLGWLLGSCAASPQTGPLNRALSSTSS
Assay: DP-2 binding inhibition assay (3H-PGD2, membranes of DP2-expressing K562 cells)
Experimental: The coding sequence of human DP2 was introduced into the human Leukemic cell line K562 by electroporation and stable clones expressing DP2 were obtained by limiting dilution followed by cell surface staining with a rat monoclonal antibody specific for human DP2. Membranes were prepared from one of these DP2 expressing clones and used to determine the ability of the compounds of the present invention to inhibit binding of prostaglandin D2 (PGD2) to its receptor DP2 in the presence of one or more of the following serum protein concentrations, 0.1% BSA, 1% HSA or 4% HSA, by the following procedure. […] After incubation for 60 minutes at room temperature, the assay was transferred to a filtration plate (#MAFB; Millipore Corporation, Bedford, Mass.), and washed three times with binding buffer. Radioactivity was measured by a scintillation counter (TopCount; PerkinElmer Life Sciences, Boston, Mass.). Nonspecific binding was determined by incubations in the presence of 1 μM unlabeled PGD2 or 5 μM of a known DP2 antagonist. IC50 values for inhibition of binding were determined for each compound tested from the inflexion point of a standard 4-parameter logistical curve fitted to the values obtained.

[1] = 0.1% BSA, read-out: EC50 (nM) 0.1% BSA
[2] = 4% HSA, read-out: EC50 (nM) 4% HSA

| SMILES | EC50 [1] [nM] | EC50 [2] [nM] | EC50 (1% HSA, read-out: EC50 (nM) 1% HSA) [nM] |
| --- | --- | --- | --- |
| N#Cc1cc2c(cc1Oc1ccc(C(=O)Nc3ccc4cn[nH]c4c3)cc1)OCCC2C(=O)O (stereo not drawn) [Example 193, 7-(4-(1H-indazol-6-ylcarbamoyl)phenoxy)-6-cyanochroman-4-carboxylic acid] | 36.7 |  |  |
| O=C(NCCc1cccnc1-c1ccccc1Cl)c1ccc(Oc2cc3c(cc2Cl)C(C(=O)O)CCO3)cc1 (stereo not drawn) [Example 224, 6-chloro-7-(4-(2-(2-(2-chlorophenyl)pyridin-3-yl)ethylcarbamoyl)phenoxy) chroman-4-carboxylic acid] |  | 998 |  |
| O=C(NCCc1cccnc1C1CC1)c1ccc(Oc2cc3c(cc2Cl)C(C(=O)O)CCO3)cc1 (stereo not drawn) [Example 223, 6-chloro-7-(4-(2-(2-cyclopropylpyridin-3-yl)ethylcarbamoyl)phenoxy) chroman-4-carboxylic acid] |  | 210 |  |
| CC(C)(C)c1csc(NC(=O)c2ccc(Oc3cc4c(cc3Cl)C(C(=O)O)CCO4)cc2)n1 (stereo not drawn) [Example 150, 7-(4-(4-tert-butylthiazol-2-ylcarbamoyl)phenoxy)-6-chlorochroman-4-carboxylic acid] |  | 32.7 |  |
| O=C(Nc1ccc(-c2ccc(Cl)cc2)nn1)c1ccc(Oc2cc3c(cc2Cl)C(C(=O)O)CCO3)cc1 (stereo not drawn) [Example 209, 6-chloro-7-(4-(6-(4-chlorophenyl)pyridazin-3-ylcarbamoyl)phenoxy) chroman-4-carboxylic acid] |  | 207 |  |
| O=C(Nc1ccn(-c2ccc(Cl)c(Cl)c2)n1)c1ccc(Oc2cc3c(cc2Cl)C(C(=O)O)CCO3)cc1 (stereo not drawn) [Example 173, 6-chloro-7-(4-(1-(3,4-dichlorophenyl)-1H-pyrazol-3-ylcarbamoyl)phenoxy)chroman-4-carboxylic acid] |  | 22.9 |  |
| N#Cc1cc2c(cc1Oc1ccc(C(=O)Nc3cnc4ccccc4n3)cc1)OCCC2C(=O)O (stereo not drawn) [Example 4, 6-Cyano-7-(4-(quinoxalin-2-ylcarbamoyl)phenoxy)chroman-4-carboxylic acid] | 27.7 |  | 370 |
| N#Cc1cc2c(cc1Oc1ccc(C(=O)Nc3cc4ccccc4cn3)cc1)OCCC2C(=O)O (stereo not drawn) [Example 9, 6-Cyano-7-(4-(isoquinolin-3-ylcarbamoyl)phenoxy)chroman-4-carboxylic acid] |  | 774 |  |
| O=C(Nc1nc2ccc(Cl)cc2s1)c1ccc(Oc2cc3c(cc2Cl)C(C(=O)O)CCO3)cc1 (stereo not drawn) [Example 207, 6-chloro-7-(4-(6-chlorobenzo[d]thiazol-2-ylcarbamoyl)phenoxy) chroman-4-carboxylic acid] |  | 105 |  |
| O=C(Nc1ccc(-c2cccc(Cl)c2)nc1)c1ccc(Oc2c(Cl)cc3c(c2Cl)OCCC3C(=O)O)cc1 (stereo not drawn) [Example 145, Sodium 6,8-dichloro-7-(4-(6-(3-chlorophenyl)pyridin-3-ylcarbamoyl)phenoxy)-chroman-4-carboxylate] |  | 160 |  |
| Cc1nc(NC(=O)c2ccc(Oc3cc4c(cc3Cl)C(C(=O)O)CCO4)cc2)cc(-c2ccc(Cl)cc2)n1 (stereo not drawn) [Example 101, Sodium 6-chloro-7-(4-(6-(4-chlorophenyl)-2-methylpyrimidin-4-ylcarbamoyl)phenoxy)chroman-4-carboxylate] |  | 998 |  |
| CN(C)c1nc(C(F)(F)F)ccc1CCNC(=O)c1ccc(Oc2cc3c(cc2Cl)C(C(=O)O)CCO3)cc1 (stereo not drawn) [Example 139, Sodium 6-chloro-7-(4-(2-(2-(dimethylamino)-6-(trifluoromethyl)pyridin-3-yl)ethylcarbamoyl)phenoxy)chroman-4-carboxylate] |  | 40 |  |
| COc1ncccc1CCNC(=O)c1ccc(Oc2cc3c(cc2Cl)C(C(=O)O)CCO3)cc1 (stereo not drawn) [Example 227, 6-chloro-7-(4-(2-(2-methoxypyridin-3-yl)ethylcarbamoyl)phenoxy) chroman-4-carboxylic acid] |  | 857 |  |
| O=C(Nc1ccnc(-c2ccc(Cl)cc2)c1)c1ccc(Oc2cc3c(cc2Cl)C(C(=O)O)CCO3)cc1 (stereo not drawn) [Example 128, 6-Chloro-7-(4-(2-(4-chlorophenyl)pyridin-4-ylcarbamoyl)phenoxy)chroman-4-carboxylic acid] |  | 596 |  |
| O=C(Nc1cncc(-c2ccc(C(F)(F)F)cc2)n1)c1ccc(Oc2cc3c(cc2Cl)C(C(=O)O)CCO3)cc1 (stereo not drawn) [Example 93, 6-Chloro-7-(4-(6-(4-(trifluoromethyl)phenyl)pyrazin-2-ylcarbamoyl)phenoxy)chroman-4-carboxylic acid] |  | 80.5 |  |
| O=C(Nc1ccc(-c2ccc(C(F)(F)F)cc2)nn1)c1ccc(Oc2cc3c(cc2Cl)C(C(=O)O)CCO3)cc1 (single isomer, unassigned; enantiomer 2) [Example 185, Enantiomer 2 of sodium 6-chloro-7-(4-(6-(4-(trifluoromethyl)phenyl)pyridazin-3-ylcarbamoyl)phenoxy)chroman-4-carboxylate] | 1.2 | 60 |  |
| O=C(Nc1cncc(-c2ccc(Cl)cc2)n1)c1ccc(Oc2c(Cl)cc3c(c2Cl)OCCC3C(=O)O)cc1 (stereo not drawn) [Example 136, 6,8-Dichloro-7-(4-(6-(4-chlorophenyl)pyrazin-2-ylcarbamoyl)phenoxy)chroman-4-carboxylic acid] |  | 442 |  |
| O=C(Nc1nc(-c2ccc(Cl)cc2)cs1)c1ccc(Oc2cc3c(cc2Cl)C(C(=O)O)CCO3)cc1 (stereo not drawn) [Example 152, 6-chloro-7-(4-(4-(4-chlorophenyl)thiazol-2-ylcarbamoyl)phenoxy)chroman-4-carboxylic acid] |  | 45.3 |  |
| O=C(Nc1cccc(-c2cc(F)cc(F)c2)n1)c1ccc(Oc2cc3c(cc2Cl)C(C(=O)O)CCO3)cc1 (stereo not drawn) [Example 89, 6-chloro-7-(4-(6-(3,5-difluorophenyl)pyridin-2-ylcarbamoyl)phenoxy)chroman-4-carboxylic acid] |  | 251 |  |
| O=C(Nc1ccc(-c2ccc(C(F)(F)F)cc2Cl)nn1)c1ccc(Oc2cc3c(cc2Cl)C(C(=O)O)CCO3)cc1 (stereo not drawn) [Example 59, Sodium 6-chloro-7-(4-(6-(2-chloro-4-(trifluoromethyl)phenyl)pyridazin-3-ylcarbamoyl)phenoxy)chroman-4-carboxylate] |  | 283 |  |
| CC(C)c1nsc(NC(=O)c2ccc(Oc3cc4c(cc3Cl)C(C(=O)O)CCO4)cc2)n1 (stereo not drawn) [Example 160, 6-chloro-7-(4-(3-isopropyl-1,2,4-thiadiazol-5-ylcarbamoyl)phenoxy)chroman-4-carboxylic acid] |  | 849 |  |
| CC(C)(C)c1cc(NC(=O)c2ccc(Oc3cc4c(cc3Cl)C(C(=O)O)CCO4)cc2)on1 (stereo not drawn) [Example 162, 7-(4-(3-tert-butylisoxazol-5-ylcarbamoyl)phenoxy)-6-chlorochroman-4-carboxylic acid] |  | 1600 |  |
| N#Cc1cc2c(cc1Oc1ccc(C(=O)Nc3cccc(-c4ccc(Cl)cc4Cl)n3)cc1)OCCC2C(=O)O (stereo not drawn) [Example 49, 6-Cyano-7-(4-(6-(2,4-dichlorophenyl)pyridin-2-ylcarbamoyl)phenoxy)chroman-4-carboxylic acid] |  | 87.3 |  |
| O=C(Nc1ccc2cc(Cl)ccc2n1)c1ccc(Oc2cc3c(cc2Cl)[C@@H](C(=O)O)CCO3)cc1 (single isomer, unassigned; enantiomer 2) [Example 37, 6-Chloro-7-(4-(6-chloroquinolin-2-ylcarbamoyl)phenoxy)chroman-4-carboxylic acid, Enantiomer 2] |  | 4000 |  |
| O=C(Nc1cccc(-c2ccccc2Cl)n1)c1ccc(Oc2cc3c(cc2Cl)C(C(=O)O)CCO3)cc1 (stereo not drawn) [Example 56, 6-Chloro-7-(4-(6-(2-chlorophenyl)pyridin-2-ylcarbamoyl)phenoxy)chroman-4-carboxylic acid] |  | 582 |  |
